Counter-ions that a name gives are not always drawn.
The compounds below were run on hPSC-SCs. Conditions: not given.

| SMILES | z.score.t |
| --- | --- |
| CCOC(=O)c1cncn1[C@H](C)c1ccccc1 [Etomidate] | −0.1902 |
| CC(C)c1c(CN(C)C(C)Cc2ccccc2)n(C)n(-c2ccccc2)c1=O (stereo not drawn) [Famprofazone] | −1.288 |
| CC(Cc1ccc(O)cc1)NCC(O)c1cc(O)cc(O)c1 (stereo not drawn) [Fenoterol hydrobromide] | 0.8992 |
| C/C=C1/C[N@+]2(C)CC[C@]34C(=C(C=O)[C@H]1C[C@@H]32)Nc1ccccc14.[Cl-] [Fluorocurarine chloride] | 1.364 |
| CCCCc1ccc(C(=O)O)nc1 [Fusaric acid] | 1.345 |
| NCC1(CC(=O)O)CCCCC1 [Gabapentin] | −0.496 |
| COc1ccc2c3c1O[C@H]1C[C@@H](O)C=C[C@@]31CCN(C)C2 [Galanthamine hydrobromide] | 0.8023 |
| C=C[C@]12CN(C)[C@@H]3[C@H]4CO[C@H](C[C@H]41)[C@]1(C(=O)Nc4ccccc41)[C@@H]32 [Gelsemine] | 1.601 |
| C[C@@H]1C(=O)O[C@H]2C[C@@]34[C@H]5C[C@@H](C(C)(C)C)[C@]36[C@@H](OC(=O)[C@@H]6O)O[C@@]4(C(=O)O5)[C@]21O [Ginkgolide A] | 1.034 |
| O=C(OCC(O)CO)c1ccccc1Nc1ccnc2cc(Cl)ccc12 (stereo not drawn) [Glafenine hydrochloride] | −0.727 |
| CCC1(c2ccc(N)cc2)CCC(=O)NC1=O (stereo not drawn) [Glutethimide, para-amino] | 0.1149 |
| Cc1cc2c(C(C)C)c(O)c(O)c(C=O)c2c(O)c1-c1c(C)cc2c(C(C)C)c(O)c(O)c(C=O)c2c1O [Gossypol] | −2.368 |

Same assay, conditions: HTS viability of hPSC-SCs in the presence of 30 mM glucose; Prestwick library; Table S4

| SMILES | z.score.t |
| --- | --- |
| CCc1cccc(CC)c1NC(=O)CN(CC(=O)O)CC(=O)O [Etifenin] | 1.002 |
| CCNCC(O)c1cccc(O)c1 (stereo not drawn) [Etilefrine hydrochloride] | −0.4549 |
| CCc1cccc2c3c([nH]c12)C(CC)(CC(=O)O)OCC3 (stereo not drawn) [Etodolac] | −0.139 |
| Cn1c(=O)c2c(ncn2CCO)n(C)c1=O [Etofylline] | 0.9225 |
| COc1cc([C@@H]2c3cc4c(cc3[C@@H](O[C@@H]3O[C@@H]5CO[C@@H](C)O[C@H]5[C@H](O)[C@H]3O)[C@H]3COC(=O)[C@H]23)OCO4)cc(OC)c1O [Etoposide] | −1.576 |
| CC1CC(OC(=O)C(O)c2ccccc2)CC(C)(C)N1C (stereo not drawn) [Eucatropine hydrochloride] | 0.0568 |
| COc1c2ccoc2nc2c(OC)c(OCC(O)C(C)(C)O)ccc12 (stereo not drawn) [Evoxine] | 0.0116 |
| NC(N)=Nc1nc(CSCCC(N)=NS(N)(=O)=O)cs1 [Famotidine] | 1.191 |
| O=C(O)Cc1ccc(-c2ccccc2)cc1 [Felbinac] | −0.0788 |
| CCOC(=O)C1=C(C)NC(C)=C(C(=O)OC)C1c1cccc(Cl)c1Cl (stereo not drawn) [Felodipine] | 0.006455 |
| COC(=O)Nc1nc2ccc(Sc3ccccc3)cc2[nH]1 [Fenbendazole] | −1.607 |
| O=C(O)CCC(=O)c1ccc(-c2ccccc2)cc1 [Fenbufen] | 1.249 |
| CC(NCCC(c1ccccc1)c1ccccc1)c1ccccc1 (stereo not drawn) [Fendiline hydrochloride] | −1.478 |
| CC(C)OC(=O)C(C)(C)Oc1ccc(C(=O)c2ccc(Cl)cc2)cc1 [Fenofibrate] | 0.1742 |
| CC(C(=O)O)c1cccc(Oc2ccccc2)c1 (stereo not drawn) [Fenoprofen calcium salt dihydrate] | 0.1244 |
| O=C1NCC2(CCN(CCc3ccccc3)CC2)O1 [Fenspiride hydrochloride] | −0.01953 |
| CC(C)(C(=O)O)c1ccc(C(O)CCCN2CCC(C(O)(c3ccccc3)c3ccccc3)CC2)cc1 (stereo not drawn) [Fexofenadine HCl] | −0.5086 |
| COc1cc(C(=O)OC2CC3CCC(C2)N3C)ccc1O (stereo not drawn) [Fillalbin] | 0.5365 |
| CC(C)(C)NC(=O)[C@H]1CC[C@H]2[C@@H]3CC[C@H]4NC(=O)C=C[C@]4(C)[C@H]3CC[C@]12C [Finasteride] | −0.9741 |
| O=C(COc1ccc(Cl)cc1)N1CCN(Cc2ccc3c(c2)OCO3)CC1 [Fipexide hydrochloride] | 0.5179 |
| Cc1c(-c2ccccc2)oc2c(C(=O)OCCN3CCCCC3)cccc2c1=O [Flavoxate hydrochloride] | 1.21 |

| SMILES | z.score.t |
| --- | --- |
| O=C(NCC1CCCCN1)c1cc(OCC(F)(F)F)ccc1OCC(F)(F)F (stereo not drawn) [Flecainide acetate] | 0.4105 |
| CS(=O)(=O)c1ccc([C@@H](O)[C@@H](CF)NC(=O)C(Cl)Cl)cc1 [Florfenicol] | 0.5365 |
| Cc1onc(-c2c(F)cccc2Cl)c1C(=O)N[C@@H]1C(=O)N2[C@@H]1SC(C)(C)[C@@H]2C(=O)O [Flucloxacillin sodium] | −1.056 |
| Nc1[nH]c(=O)ncc1F [Flucytosine] | −0.05622 |
| CC(=O)OCC(=O)[C@@]1(O)CC[C@H]2[C@@H]3CCC4=CC(=O)CC[C@]4(C)[C@@]3(F)[C@@H](O)C[C@@]21C [Fludrocortisone acetate] | 1.278 |
| O=C(O)c1ccccc1Nc1cccc(C(F)(F)F)c1 [Flufenamic acid] | −1.003 |
| Fc1ccc(C(c2ccc(F)cc2)N2CCN(C/C=C/c3ccccc3)CC2)cc1 [Flunarizine dihydrochloride] | −1.898 |
| CC1(C)O[C@@H]2C[C@H]3[C@@H]4C[C@H](F)C5=CC(=O)C=C[C@]5(C)[C@H]4[C@@H](O)C[C@]3(C)[C@]2(C(=O)CO)O1 [Flunisolide] | 1.612 |
| Cc1c(Nc2ncccc2C(=O)O)cccc1C(F)(F)F [Flunixin meglumine] | 1.117 |
| CC(=O)OCC(=O)[C@@]12OC(C)(C)O[C@@H]1C[C@H]1[C@@H]3C[C@H](F)C4=CC(=O)C=C[C@]4(C)[C@@]3(F)[C@@H](O)C[C@@]12C [Fluocinonide] | 0.2803 |
| CC(=O)[C@@]1(O)CC[C@H]2[C@@H]3C[C@H](C)C4=CC(=O)C=C[C@]4(C)[C@@]3(F)[C@@H](O)C[C@@]21C [Fluorometholone] | −0.9741 |
| CNCCC(Oc1ccc(C(F)(F)F)cc1)c1ccccc1 (stereo not drawn) [Fluoxetine hydrochloride] | −0.865 |
| OCCN1CCN(CCCN2c3ccccc3Sc3ccc(C(F)(F)F)cc32)CC1 [Fluphenazine dihydrochloride] | −1.847 |
| CC1(C)O[C@@H]2C[C@H]3[C@@H]4C[C@H](F)C5=CC(=O)CC[C@]5(C)[C@H]4[C@@H](O)C[C@]3(C)[C@]2(C(=O)CO)O1 [Flurandrenolide] | 0.4741 |
| CC(C(=O)O)c1ccc(-c2ccccc2)c(F)c1 (stereo not drawn) [Flurbiprofen] | 1.824 |
| O=C1NCN(c2ccccc2)C12CCN(CCCC(c1ccc(F)cc1)c1ccc(F)cc1)CC2 [Fluspirilen] | −1.399 |
| CC(C)C(=O)Nc1ccc([N+](=O)[O-])c(C(F)(F)F)c1 [Flutamide] | 0.5856 |
| CCC(=O)O[C@]1(C(=O)SCF)[C@H](C)C[C@H]2[C@@H]3C[C@H](F)C4=CC(=O)C=C[C@]4(C)[C@@]3(F)[C@@H](O)C[C@@]21C [Fluticasone propionate] | 0.1543 |
| CC(C)n1c(/C=C/C(O)CC(O)CC(=O)O)c(-c2ccc(F)cc2)c2ccccc21 (stereo not drawn) [Fluvastatin sodium salt] | −0.4538 |
| COCCCC/C(=N\OCCN)c1ccc(C(F)(F)F)cc1 [Fluvoxamine maleate] | 0.03957 |
| Nc1nc2ncc(CNc3ccc(C(=O)N[C@@H](CCC(=O)O)C(=O)O)cc3)nc2c(=O)[nH]1 [Folic acid] | 0.7312 |

| SMILES | z.score.t |
| --- | --- |
| Nc1nc(=O)c2c([nH]1)NCC(CNc1ccc(C(=O)N[C@@H](CCC(=O)[O-])C(=O)[O-])cc1)N2C=O.[Ca+2] (stereo partly drawn) [Folinic acid calcium salt] | 0.1244 |
| O=C(O)c1ccccc1OP(=O)(O)O [Fosfosal] | 0.495 |
| O=C1OC(CN2CCOCC2)CN1/N=C/c1ccc([N+](=O)[O-])o1 (stereo not drawn) [Furaltadone hydrochloride] | 2.34 |
| NS(=O)(=O)c1cc(C(=O)O)c(NCc2ccco2)cc1Cl [Furosemide] | −1.306 |
| CC(=O)O[C@H]1C[C@@]2(C)[C@@H](C[C@@H](O)[C@H]3[C@@]4(C)CC[C@@H](O)[C@@H](C)[C@@H]4CC[C@@]32C)/C1=C(\CCC=C(C)C)C(=O)O [Fusidic acid sodium salt] | 0.6203 |
| Fc1ccc(C(OCCN2CCN(CCCc3ccccc3)CC2)c2ccc(F)cc2)cc1 [GBR 12909 dihydrochloride] | −1.092 |
| COc1ccc(-c2ccc(=N)n(CCCC(=O)O)n2)cc1 [Gabazine] | 1.252 |
| CCOC(=O)c1ccc(OC(=O)CCCCCN=C(N)N)cc1.CS(=O)(=O)O [Gabexate mesilate] | 0.5136 |
| CC[N+](CC)(CC)CCOc1cccc(OCC[N+](CC)(CC)CC)c1OCC[N+](CC)(CC)CC [Gallamine triethiodide] | −0.1538 |
| Nc1nc(O)c2ncn(COC(CO)CO)c2n1 [Ganciclovir] | −0.5992 |
| Cc1ccc(C)c(OCCCC(C)(C)C(=O)O)c1 [Gemfibrozil] | 0.4486 |
| C=C1C[C@]23C[C@@]1(O)CC[C@H]2[C@@]12C=C[C@H](O)[C@@](C)(C(=O)O1)[C@H]2[C@@H]3C(=O)O [Gibberellic acid] | −0.3452 |
| COc1ccc(Cl)cc1C(=O)NCCc1ccc(S(=O)(=O)NC(=O)NC2CCCCC2)cc1 [Glibenclamide] | −0.7776 |
| Cc1ccc(S(=O)(=O)NC(=O)NN2CC3CCCC3C2)cc1 (stereo not drawn) [Gliclazide] | −0.03629 |
| CCC1=C(C)CN(C(=O)NCCc2ccc(S(=O)(=O)NC(=O)N[C@H]3CC[C@H](C)CC3)cc2)C1=O [Glimepiride] | 1.252 |
| Cc1cnc(C(=O)NCCc2ccc(S(=O)(=O)NC(=O)NC3CCCCC3)cc2)cn1 [Glipizide] | 1.43 |
| COc1ccc2c(c1)C(=O)N(CCc1ccc(S(=O)(=O)NC(=O)NC3CCCCC3)cc1)C(=O)C2(C)C [Gliquidone] | 2.369 |
| C[C@H](CCC(=O)NCC(=O)O)[C@H]1CC[C@H]2[C@@H]3[C@H](O)C[C@@H]4C[C@H](O)CC[C@]4(C)[C@H]3C[C@H](O)[C@]12C [Glycocholic acid] | −0.8478 |
| C[N+]1(C)CCC(OC(=O)C(O)(c2ccccc2)C2CCCC2)C1 (stereo not drawn) [Glycopyrrolate] | −0.1913 |
| CN(C)Cc1c[nH]c2ccccc12 [Gramine] | 1.018 |
| Cn1c(-c2ccc3c(c2)OCO3)cc(=O)c2ccccc21 [Graveoline] | 0.495 |

Reference: US20260053861A1, “CELL COMPOSITIONS AND METHODS OF USING THE SAME” (THE REGENTS OF THE UNIVERSITY OF CALIFORNIA, priority 2022, published 2026)
